What was measured:
Type in all cases: in vivo, human
[1] = system: patients with essential tremor; assay: T-CALM: TETRAS activities of daily living subscale (TETRAS-ADL); settings: for TETRAS-ADL score (change from baseline), Mean (SD) / TETRAS-ADL score (change from baseline), Median / TETRAS-ADL score (change from baseline), Median (minimum, maximum): post-hoc
Source text: The sum of the individual scores provides the overall score, ranging from 0 to 48. The complete TETRAS ADL Subscale is as follows.
Rate tremor's impact on activities of daily living (0-4 scoring).
• 0=Normal. • 1=Slight voice tremulousness, only when “nervous”. • 2=Mild voice tremor. All words easily understood. • 3=Moderate voice tremor. Some words difficult to understand. • 4=Severe voice tremor. Most words difficult to understand. 2. Feeding with a Spoon • 0=Normal. • 1=Slightly abnormal. […] Spills a little. • 3=Moderately abnormal. Spills a lot or changes strategy to complete task such as using two hands or leaning over. • 4=Severely abnormal. Cannot feed with a spoon. 3. Drinking from a Glass • 0=Normal. • 1=Slightly abnormal. […] Spills a little. • 3=Moderately abnormal. Spills a lot or changes strategy to complete task such as using two, hands or leaning over. • 4=Severely abnormal. Cannot drink from a glass or uses straw or sippy cup. 4. Hygiene • 0=Normal. • 1=Slightly abnormal. […] Some difficulty but can complete task. • 3=Moderately abnormal. Unable to do most fine tasks such as putting on lipstick or shaving unless changes strategy such as using two hands or using the less affected hand. 4=Severely abnormal. Cannot complete hygiene tasks independently. 5. Dressing • 0=Normal. • 1=Slightly abnormal. […] Able to do everything but has difficulty due to tremor. • 3=Moderately abnormal. Unable to do most dressing unless changes strategy such as using Velcro, buttoning shirt before putting it on or avoiding shoes with laces. • 4=Severely abnormal. Cannot dress independently. 6. Pouring • 0=Normal. • 1=Slightly abnormal. […] Must be very careful to avoid spilling but may spill occasionally. • 3=Moderately abnormal. Must use two hands or uses other strategies to avoid spilling. • 4=Severely abnormal. Cannot pour. 7. Carrying Food Trays, Plates or Similar Items • 0=Normal. • 1=Slightly abnormal. […] Must be very careful to avoid spilling items on food tray. • 3=Moderately abnormal. Uses strategies such as holding tightly against body to carry. • 4=Severely abnormal. Cannot carry food trays or similar items. 8. Using Keys • 0=Normal. • 1=Slightly abnormal. Tremor is present but can insert key with one hand without difficulty. • 2=Mildly abnormal. Commonly misses target but still routinely puts key in lock with one hand. • 3=Moderately abnormal. Needs to use two hands or other strategies to put key in lock. • 4=Severely abnormal. Cannot put key in lock. 9. Writing • 0=Normal. • 1=Slightly abnormal. […] Difficulty writing due to tremor. • 3=Moderately abnormal. Cannot write without using strategies such as holding the writing hand with the other hand, holding pen differently or using large pen. • 4=Severely abnormal. Cannot write. 10. Working. If Patient is Retired, Ask as if they were Still Working. If the Patient is a Housewife, Ask the Question as it Relates to Housework: • 0=Normal. • 1=Slightly abnormal. […] Tremor interferes with work; able to do everything, but with errors. • 3=Moderately abnormal. Unable to continue working without using strategies such as changing jobs or using special equipment. • 4=Severely abnormal. Cannot perform any job or household work. 11. Overall Disability with the Most Affect Task (Name Task, e.g. Using Computer Mouse, Writing, Etc.) • Task ______ • 0=Normal. • 1=Slightly abnormal. […] Tremor interferes with task but still able to perform task. • 3=Moderately abnormal. Can do task but must use strategies. • 4=Severely abnormal. Cannot do the task. 12.
Analyses of the TETRAS-ADL was conducted using the same type of ANCOVA model as described for the TETRAS-PS, using two-sided tests at the alpha=0.05 level of significance (FIG. 2 and Table 2).

[2] = system: patients with essential tremor; assay: T-CALM: ECG, vital signs, laboratory and examination safety assessments
Protocol: Electrocardiogram results were calculated as the average of the triplicate records at each time point. Baseline was defined as the mean of the triplicate values obtained pre-dose at Day 1. If this value was not available, the mean of the triplicate records obtained at screening were used.
Safety procedures involved collection of all TEAEs (treatment-emergent adverse events) coded into the Medical Dictionary for Regulatory Activities (MedDRA) version 20. Adverse events were classified by maximum severity, drug-related adverse events, serious adverse events, and adverse events leading to patient discontinuation.

[3] = system: patients with essential tremor; assay: PK/PD: Cmin exposure of CX-8998 vs change in TETRAS-PS (Hill equation); settings: steady state
Source text: Pharmacodynamic variables (Response) evaluated included change from baseline in TETRAS performance subscale, TETRAS activities of daily living, TETRAS total score.

[4] = patients Minimally Improved by CGI-I, Day 15
[5] = patients Minimally Improved by CGI-I, Day 28
[6] = patients Minimally Improved by PGIC, Day 15
[7] = patients Minimally Improved by PGIC, Day 28

SMILES: CC(C)c1ccc(CC(=O)N[C@H](C)c2ccc(OCC(F)(F)F)cn2)cc1 [CX-8998]
- responders: improvement of at least 5 points by TETRAS-ADL score, % ([1]; Day 15): (46.2%)
- responders: improvement of at least 5 points by TETRAS-ADL score, number ([1]; Day 15, N 39): 18
- TETRAS-ADL change from baseline 0 change: subjects, number (%) ([1]; Day 15, N = 39): 2 (5.1%)
- TETRAS-ADL change from baseline >0 to 1 point improvement: subjects, number (%) ([1]; Day 15, N = 39): 5 (12.8%)
- TETRAS-ADL change from baseline >0 to 1 point worsening: subjects, number (%) ([1]; Day 15, N = 39): 1 (2.6%)
- TETRAS-ADL change from baseline >1 to 2.5 point improvement: subjects, number (%) ([1]; Day 15, N = 39): 2 (5.1%)
- TETRAS-ADL change from baseline >1 to 2.5 point worsening: subjects, number (%) ([1]; Day 15, N = 39): 3 (7.7%)
- TETRAS-ADL change from baseline >2.5 to 5 point improvement: subjects, number (%) ([1]; Day 15, N = 39): 7 (17.9%)
- TETRAS-ADL change from baseline >2.5 to 5 point worsening: subjects, number (%) ([1]; Day 15, N = 39): 3 (7.7%)
- TETRAS-ADL change from baseline >5 to 10 point improvement: subjects, number (%) ([1]; Day 15, N = 39): 11 (28.2%)
- TETRAS-ADL change from baseline >5 to 10 point worsening: subjects, number (%) ([1]; Day 15, N = 39): 0
- TETRAS-ADL change from baseline >10 point improvement: subjects, number (%) ([1]; Day 15, N = 39): 5 (12.8%)
- TETRAS-ADL change from baseline >10 point worsening: subjects, number (%) ([1]; Day 15, N = 39): 0
- responders: improvement of at least 5 points by TETRAS-ADL score, % ([1]; Day 28): (29.7%)
- responders: improvement of at least 5 points by TETRAS-ADL score, number ([1]; Day 28, N 37): 11
- TETRAS-ADL change from baseline 0 change: subjects, number (%) ([1]; Day 28, N = 37): 5 (13.5%)
- TETRAS-ADL change from baseline >0 to 1 point improvement: subjects, number (%) ([1]; Day 28, N = 37): 2 (5.4%)
- TETRAS-ADL change from baseline >0 to 1 point worsening: subjects, number (%) ([1]; Day 28, N = 37): 3 (8.1%)
- TETRAS-ADL change from baseline >1 to 2.5 point improvement: subjects, number (%) ([1]; Day 28, N = 37): 3 (8.1%)
- TETRAS-ADL change from baseline >1 to 2.5 point worsening: subjects, number (%) ([1]; Day 28, N = 37): 3 (8.1%)
- TETRAS-ADL change from baseline >2.5 to 5 point improvement: subjects, number (%) ([1]; Day 28, N = 37): 7 (18.9%)
- TETRAS-ADL change from baseline >2.5 to 5 point worsening: subjects, number (%) ([1]; Day 28, N = 37): 3 (8.1%)
- TETRAS-ADL change from baseline >5 to 10 point improvement: subjects, number (%) ([1]; Day 28, N = 37): 6 (16.2)
- TETRAS-ADL change from baseline >5 to 10 point worsening: subjects, number (%) ([1]; Day 28, N = 37): 0
- TETRAS-ADL change from baseline >10 point improvement: subjects, number (%) ([1]; Day 28, N = 37): 5 (13.5%)
- TETRAS-ADL change from baseline >10 point worsening: subjects, number (%) ([1]; Day 28, N = 37): 0
- TETRAS-ADL score (change from baseline), Mean (SD) [1, 4]: −3.7 (4.21)
- TETRAS-ADL score (change from baseline), Median [1, 4]: −2.0
- TETRAS-ADL score (change from baseline), Mean (SD) [1, 5]: −4.4 (8.10)
- TETRAS-ADL score (change from baseline), Median (minimum, maximum) [1, 5]: −1.0 (−24, 3)
- TETRAS-ADL score (change from baseline), Mean (SD) [1, 6]: −3.3 (4.27)
- TETRAS-ADL score (change from baseline), Median [1, 6]: −4.0
- TETRAS-ADL score (change from baseline), Mean (SD) [1, 7]: −1.6 (3.84)
- TETRAS-ADL score (change from baseline), Median (minimum, maximum) [1, 7]: −1.0 (−7, 3)
- integrated analysis of electrocardiogram outliers ([2]; T-CALM, efficacious doses): no CVS safety signals
- clinical laboratory parameters vs placebo ([2]; in vivo): No clinically meaningful differences
- vital signs, ECG, neurological and physical examinations ([2]; in vivo): No clinically significant abnormalities
- Emax, change from baseline in TETRAS-PS (Hill equation) [3]: approximately −4.1

Source: patent US12383539B2 (Cavion, Inc., priority 2018, dated 2025)
